# Measured values as given in patent US10710978B2, “STK4 inhibitors for treatment of hematologic malignancies” (Dana-Farber Cancer Institute, Inc., priority 2015, dated 2020).
# Where two headings read alike, the source gives them in different places.
# Columns and labels:
# Experiment in all cases: KiNativ assay
# Type in all cases: binding
# CK1g3 = CK1g3 (Homo sapiens (Human), UniProt Q9Y6M4); settings: H929 live cell
# Description: (§1) Biochemical IC50s of the compounds of the present disclosure against various kinases were measured in a KiNativ assay. Compounds were screened in duplicate at 10 μM in H929 live cell. IC50 was measured via Mass spectroscopy (MS).
# AurA, AurB, AurC = settings: H929 live cell; for % inhibition: 10 μM, range class
# Description: as §1
# MAST3 = MAST3 (Homo sapiens (Human), UniProt O60307); settings: H929 live cell
# Description: as §1
# JAK1 domain1 = JAK1 domain1 (Homo sapiens (Human), UniProt P23458); settings: H929 live cell
# Description: as §1
# FER = FER (Homo sapiens (Human), UniProt P16591); settings: H929 live cell
# Description: as §1
# SNRK = SNRK (Homo sapiens (Human), UniProt Q9NRH2); settings: H929 live cell
# Description: as §1
# MARK1, MARK2 = settings: H929 live cell; for % inhibition: 10 μM, range class
# Description: as §1
# HPK1 = HPK1 (Homo sapiens (Human), UniProt Q92918); settings: H929 live cell
# Description: as §1
# ATR = ATR (Homo sapiens (Human), UniProt Q13535); settings: H929 live cell
# Description: as §1
# MARK4 = MARK4 (Homo sapiens (Human), UniProt Q96L34); settings: H929 live cell
# Description: as §1
# p70S6K = p70S6K (Homo sapiens (Human), UniProt P23443); settings: H929 live cell
# Description: as §1
# MARK3 = MARK3 (Homo sapiens (Human), UniProt P27448); settings: H929 live cell
# Description: as §1
# NEK9 = NEK9 (Homo sapiens (Human), UniProt Q8TD19); settings: H929 live cell
# Description: as §1
# AurB = AurB (Homo sapiens (Human), UniProt Q96GD4); settings: H929 live cell
# Description: as §1
# RSK2 domain1 = RSK2 domain1 (Homo sapiens (Human), UniProt P51812); settings: H929 live cell
# Description: as §1
# MAP3K2, MAP3K3 = settings: H929 live cell; for % inhibition: 10 μM, range class
# Description: as §1
# NuaK1 = NuaK1 (Homo sapiens (Human), UniProt O60285); settings: H929 live cell
# Description: as §1
# ZAK = ZAK (Homo sapiens (Human), UniProt Q9NYL2); settings: H929 live cell
# Description: as §1
# MAP3K1 = MAP3K1 (Homo sapiens (Human), UniProt Q13233); settings: H929 live cell
# Description: as §1
# PKCi = PKCi (Homo sapiens (Human), UniProt P41743); settings: H929 live cell
# Description: as §1
# STLK5 = STLK5 (Homo sapiens (Human), UniProt Q7RTN6); settings: H929 live cell
# Description: as §1
# PIP4K2A = PIP4K2A (Homo sapiens (Human), UniProt P48426); settings: H929 live cell
# Description: as §1
# MAP3K4 = MAP3K4 (Homo sapiens (Human), UniProt Q9Y6R4); settings: H929 live cell
# Description: as §1
# [1] = test system: CaMK2a, CaMK2b, CaMK2d, CaMK2g; settings: H929 live cell; for % inhibition: 10 μM, range class
# Description: as §1
# PEK = PEK (Homo sapiens (Human), UniProt Q9NZJ5); settings: H929 live cell
# Description: as §1
# NEK4 = NEK4 (Homo sapiens (Human), UniProt P51957); settings: H929 live cell
# Description: as §1
# NuaK2 = NuaK2 (Homo sapiens (Human), UniProt Q9H093); settings: H929 live cell
# Description: as §1
# CHK2 = CHK2 (Homo sapiens (Human), UniProt O96017); settings: H929 live cell
# Description: as §1
# MASTL = MASTL (Homo sapiens (Human), UniProt Q96GX5); settings: H929 live cell
# Description: as §1
# MAP2K6 = MAP2K6 (Homo sapiens (Human), UniProt P52564); settings: H929 live cell
# Description: as §1
# BRAF = BRAF (Homo sapiens (Human), UniProt P15056); settings: H929 live cell
# Description: as §1
# TBK1 = TBK1 (Homo sapiens (Human), UniProt Q9UHD2); settings: H929 live cell
# Description: as §1
# NEK3 = NEK3 (Homo sapiens (Human), UniProt P51956); settings: H929 live cell
# Description: as §1
# [2] = range class, read-out: % inhibition
# Sequence of NuaK2 (Q9H093 whole entry): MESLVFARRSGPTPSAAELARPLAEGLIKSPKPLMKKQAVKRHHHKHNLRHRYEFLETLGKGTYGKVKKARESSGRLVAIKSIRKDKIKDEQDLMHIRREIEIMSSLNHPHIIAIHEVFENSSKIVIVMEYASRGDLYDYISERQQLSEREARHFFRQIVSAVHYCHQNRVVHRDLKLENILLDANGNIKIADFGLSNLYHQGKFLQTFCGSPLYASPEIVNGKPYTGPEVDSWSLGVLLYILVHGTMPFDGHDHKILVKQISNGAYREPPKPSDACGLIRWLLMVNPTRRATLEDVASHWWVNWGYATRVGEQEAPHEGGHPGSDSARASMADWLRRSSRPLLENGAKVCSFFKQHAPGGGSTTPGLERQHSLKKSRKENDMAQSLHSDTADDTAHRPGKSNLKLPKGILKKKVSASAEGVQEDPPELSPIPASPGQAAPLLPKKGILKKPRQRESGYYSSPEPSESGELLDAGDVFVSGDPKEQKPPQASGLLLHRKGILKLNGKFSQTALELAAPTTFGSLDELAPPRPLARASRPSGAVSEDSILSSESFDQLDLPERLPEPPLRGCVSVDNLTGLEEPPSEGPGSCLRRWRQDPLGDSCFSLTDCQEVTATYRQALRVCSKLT
# Sequence of PKCi (P41743 whole entry): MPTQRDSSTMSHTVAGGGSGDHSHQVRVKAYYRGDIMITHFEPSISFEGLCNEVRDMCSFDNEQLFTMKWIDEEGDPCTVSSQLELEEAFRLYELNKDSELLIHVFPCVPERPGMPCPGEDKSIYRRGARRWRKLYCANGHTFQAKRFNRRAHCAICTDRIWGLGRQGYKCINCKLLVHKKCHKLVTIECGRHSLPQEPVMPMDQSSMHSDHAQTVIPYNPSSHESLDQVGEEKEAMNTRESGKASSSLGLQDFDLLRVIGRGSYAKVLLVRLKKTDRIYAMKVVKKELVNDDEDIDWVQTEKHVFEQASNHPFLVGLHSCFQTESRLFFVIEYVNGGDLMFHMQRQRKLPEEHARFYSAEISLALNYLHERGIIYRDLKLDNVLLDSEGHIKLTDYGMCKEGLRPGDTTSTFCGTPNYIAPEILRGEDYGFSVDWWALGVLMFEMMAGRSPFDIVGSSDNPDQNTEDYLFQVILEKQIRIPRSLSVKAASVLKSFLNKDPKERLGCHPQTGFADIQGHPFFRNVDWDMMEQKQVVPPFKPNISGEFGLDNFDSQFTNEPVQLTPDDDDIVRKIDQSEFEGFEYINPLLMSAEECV
# Sequence of TBK1 (Q9UHD2 whole entry): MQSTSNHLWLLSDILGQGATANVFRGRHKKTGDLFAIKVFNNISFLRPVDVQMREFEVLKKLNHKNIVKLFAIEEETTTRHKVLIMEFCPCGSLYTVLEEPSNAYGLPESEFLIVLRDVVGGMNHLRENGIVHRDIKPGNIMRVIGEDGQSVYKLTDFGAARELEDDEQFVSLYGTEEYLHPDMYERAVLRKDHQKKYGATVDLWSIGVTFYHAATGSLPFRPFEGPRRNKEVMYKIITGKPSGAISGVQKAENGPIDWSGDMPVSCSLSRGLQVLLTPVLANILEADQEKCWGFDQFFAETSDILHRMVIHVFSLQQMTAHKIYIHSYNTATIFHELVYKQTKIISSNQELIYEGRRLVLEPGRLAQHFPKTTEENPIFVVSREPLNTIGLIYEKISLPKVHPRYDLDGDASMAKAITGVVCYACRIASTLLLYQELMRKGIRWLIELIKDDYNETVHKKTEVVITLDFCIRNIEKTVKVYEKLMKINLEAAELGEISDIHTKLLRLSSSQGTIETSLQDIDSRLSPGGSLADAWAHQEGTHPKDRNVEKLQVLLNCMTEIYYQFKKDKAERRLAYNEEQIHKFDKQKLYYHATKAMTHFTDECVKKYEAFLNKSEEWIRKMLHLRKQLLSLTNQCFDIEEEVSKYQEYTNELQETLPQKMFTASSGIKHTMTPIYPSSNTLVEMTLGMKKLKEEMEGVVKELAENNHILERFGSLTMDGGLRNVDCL
# Sequence of NEK3 (P51956 whole entry): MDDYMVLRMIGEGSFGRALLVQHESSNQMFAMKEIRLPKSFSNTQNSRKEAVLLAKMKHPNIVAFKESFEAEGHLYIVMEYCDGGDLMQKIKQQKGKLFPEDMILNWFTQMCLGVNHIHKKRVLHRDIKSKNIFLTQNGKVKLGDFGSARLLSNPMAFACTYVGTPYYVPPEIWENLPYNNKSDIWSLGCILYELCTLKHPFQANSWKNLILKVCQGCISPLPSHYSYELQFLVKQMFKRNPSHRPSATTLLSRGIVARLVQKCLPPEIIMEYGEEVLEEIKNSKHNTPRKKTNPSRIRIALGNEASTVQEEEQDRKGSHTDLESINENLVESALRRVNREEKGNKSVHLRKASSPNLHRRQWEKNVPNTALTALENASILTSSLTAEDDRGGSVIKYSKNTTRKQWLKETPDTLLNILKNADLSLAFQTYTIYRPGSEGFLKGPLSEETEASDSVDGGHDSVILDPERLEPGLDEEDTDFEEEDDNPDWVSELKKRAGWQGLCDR
# Sequence of BRAF (P15056 whole entry): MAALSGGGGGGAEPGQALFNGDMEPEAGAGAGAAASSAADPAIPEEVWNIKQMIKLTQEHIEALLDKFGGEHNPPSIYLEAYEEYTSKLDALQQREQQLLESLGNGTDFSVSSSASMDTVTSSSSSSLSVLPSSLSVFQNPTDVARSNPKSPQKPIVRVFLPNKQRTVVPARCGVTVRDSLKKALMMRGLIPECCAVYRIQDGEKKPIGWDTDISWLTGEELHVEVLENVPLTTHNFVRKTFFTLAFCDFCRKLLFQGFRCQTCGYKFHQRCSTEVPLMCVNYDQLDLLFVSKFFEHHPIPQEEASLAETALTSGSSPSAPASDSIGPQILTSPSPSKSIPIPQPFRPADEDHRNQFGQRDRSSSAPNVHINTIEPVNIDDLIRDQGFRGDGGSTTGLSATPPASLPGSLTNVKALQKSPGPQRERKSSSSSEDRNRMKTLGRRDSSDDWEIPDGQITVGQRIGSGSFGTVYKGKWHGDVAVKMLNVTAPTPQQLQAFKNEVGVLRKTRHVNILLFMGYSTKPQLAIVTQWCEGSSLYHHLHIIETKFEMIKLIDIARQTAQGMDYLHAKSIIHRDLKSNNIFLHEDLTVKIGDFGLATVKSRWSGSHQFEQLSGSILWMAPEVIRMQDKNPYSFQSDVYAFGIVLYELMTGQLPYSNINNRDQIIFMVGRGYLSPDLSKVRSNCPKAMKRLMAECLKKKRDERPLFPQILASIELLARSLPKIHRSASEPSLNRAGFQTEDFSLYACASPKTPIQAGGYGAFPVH
# Sequence of MAP3K4 (Q9Y6R4 whole entry): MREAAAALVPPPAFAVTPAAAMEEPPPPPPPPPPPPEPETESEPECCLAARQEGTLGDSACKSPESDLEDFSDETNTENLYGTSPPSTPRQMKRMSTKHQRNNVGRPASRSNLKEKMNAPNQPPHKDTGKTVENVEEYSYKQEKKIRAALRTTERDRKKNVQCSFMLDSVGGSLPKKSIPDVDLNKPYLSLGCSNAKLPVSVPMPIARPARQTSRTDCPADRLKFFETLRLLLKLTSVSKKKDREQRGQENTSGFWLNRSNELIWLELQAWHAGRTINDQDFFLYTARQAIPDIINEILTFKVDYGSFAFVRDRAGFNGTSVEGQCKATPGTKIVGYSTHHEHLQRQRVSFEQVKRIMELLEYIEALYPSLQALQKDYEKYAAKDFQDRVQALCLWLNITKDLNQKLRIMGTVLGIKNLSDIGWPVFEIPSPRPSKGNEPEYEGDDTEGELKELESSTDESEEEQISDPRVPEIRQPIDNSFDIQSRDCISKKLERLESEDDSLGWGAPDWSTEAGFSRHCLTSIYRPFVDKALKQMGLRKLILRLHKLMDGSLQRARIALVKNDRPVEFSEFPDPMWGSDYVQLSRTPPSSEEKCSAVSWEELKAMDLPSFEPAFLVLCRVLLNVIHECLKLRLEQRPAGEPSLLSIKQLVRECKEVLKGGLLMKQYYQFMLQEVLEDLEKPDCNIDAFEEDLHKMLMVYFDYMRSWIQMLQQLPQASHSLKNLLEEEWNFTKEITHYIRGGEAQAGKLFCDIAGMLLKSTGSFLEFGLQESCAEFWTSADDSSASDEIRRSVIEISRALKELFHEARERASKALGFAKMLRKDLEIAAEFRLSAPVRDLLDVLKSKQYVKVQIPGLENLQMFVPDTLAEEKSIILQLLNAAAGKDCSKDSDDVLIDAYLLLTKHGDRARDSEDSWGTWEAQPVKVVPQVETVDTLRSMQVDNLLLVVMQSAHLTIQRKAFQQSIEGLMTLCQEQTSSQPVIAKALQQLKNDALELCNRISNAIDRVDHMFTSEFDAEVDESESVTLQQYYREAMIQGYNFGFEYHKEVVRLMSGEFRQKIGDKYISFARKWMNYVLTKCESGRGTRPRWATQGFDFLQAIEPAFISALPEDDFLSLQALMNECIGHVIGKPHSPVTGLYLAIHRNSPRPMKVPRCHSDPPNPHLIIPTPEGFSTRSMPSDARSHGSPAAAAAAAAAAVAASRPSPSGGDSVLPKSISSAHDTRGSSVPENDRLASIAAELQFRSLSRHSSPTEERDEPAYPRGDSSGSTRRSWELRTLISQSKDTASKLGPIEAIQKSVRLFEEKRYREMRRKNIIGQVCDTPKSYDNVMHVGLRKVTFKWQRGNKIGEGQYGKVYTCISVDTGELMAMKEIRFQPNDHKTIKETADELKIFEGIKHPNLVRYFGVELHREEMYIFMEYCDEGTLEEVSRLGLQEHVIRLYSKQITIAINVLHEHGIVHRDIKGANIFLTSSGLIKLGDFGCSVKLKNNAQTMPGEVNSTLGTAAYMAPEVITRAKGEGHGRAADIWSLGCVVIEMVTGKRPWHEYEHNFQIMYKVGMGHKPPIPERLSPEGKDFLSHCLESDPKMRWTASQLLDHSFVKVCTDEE
structure (smiles),measurement,setting,value
"COc1cc(NS(=O)(=O)C2CC2)ccc1-c1cnc(N)c(-c2ccc3c(c2)CCNC3=O)c1 [Compound I-50, N-(4-(6-amino-5-(1-oxo-1,2,3,4-tetrahydroisoquinolin-6-yl)pyridin-3-yl)-3-methoxyphenyl) cyclopropanesulfonamide]",inhibition at 10 µM,CK1g3; [2],75 to 90%
same,inhibition at 10 µM,CK1g3; read-out: inhibition (10 μM),77.1%
same,% inhibition,"AurA, AurB, AurC",0.0%
same,inhibition (10 μM),"AurA, AurB, AurC",17.8%
same,inhibition at 10 µM,MAST3; [2],0%
same,inhibition at 10 µM,MAST3; read-out: inhibition (10 μM),-0.5%
same,inhibition at 10 µM,JAK1 domain1; [2],0%
same,inhibition at 10 µM,JAK1 domain1; read-out: inhibition (10 μM),-19.8%
same,inhibition at 10 µM,FER; [2],0%
same,inhibition at 10 µM,FER; read-out: inhibition (10 μM),16.3%
same,inhibition at 10 µM,SNRK; [2],0%
same,inhibition at 10 µM,SNRK; read-out: inhibition (10 μM),33.2%
same,% inhibition,"MARK1, MARK2",0.0%
same,inhibition (10 μM),"MARK1, MARK2",−29.5%
same,inhibition at 10 µM,HPK1; [2],> 90%
same,inhibition at 10 µM,HPK1; read-out: inhibition (10 μM),90.4%
same,inhibition at 10 µM,ATR; [2],0%
same,inhibition at 10 µM,ATR; read-out: inhibition (10 μM),17.1%
same,inhibition at 10 µM,MARK4; [2],0%
same,inhibition at 10 µM,MARK4; read-out: inhibition (10 μM),6.8%
same,inhibition at 10 µM,p70S6K; [2],0%
same,inhibition at 10 µM,p70S6K; read-out: inhibition (10 μM),2.4%
same,inhibition at 10 µM,MARK3; [2],0%
same,inhibition at 10 µM,MARK3; read-out: inhibition (10 μM),-17.3%
same,inhibition at 10 µM,NEK9; [2],0%
same,inhibition at 10 µM,NEK9; read-out: inhibition (10 μM),5.9%
same,inhibition at 10 µM,AurB; [2],0%
same,inhibition at 10 µM,AurB; read-out: inhibition (10 μM),7.7%
same,inhibition at 10 µM,RSK2 domain1; [2],0%
same,inhibition at 10 µM,RSK2 domain1; read-out: inhibition (10 μM),21%
same,% inhibition,"MAP3K2, MAP3K3",0.0%
same,inhibition (10 μM),"MAP3K2, MAP3K3",12.0%
same,inhibition (10 μM),NuaK1,61.5%
same,inhibition at 10 µM,NuaK1; [2],50 to 75%
same,inhibition at 10 µM,NuaK1; read-out: inhibition (10 μM),67.9%
same,inhibition at 10 µM,ZAK; [2],0%
same,inhibition at 10 µM,ZAK; read-out: inhibition (10 μM),6.6%
same,inhibition at 10 µM,MAP3K1; [2],75 to 90%
same,inhibition at 10 µM,MAP3K1; read-out: inhibition (10 μM),86.7%
same,inhibition at 10 µM,PKCi; [2],0%
same,inhibition at 10 µM,PKCi; read-out: inhibition (10 μM),-15%
same,inhibition at 10 µM,STLK5; [2],0%
same,inhibition at 10 µM,STLK5; read-out: inhibition (10 μM),-22.3%
same,inhibition at 10 µM,PIP4K2A; [2],0%
same,inhibition at 10 µM,PIP4K2A; read-out: inhibition (10 μM),-5.5%
same,inhibition at 10 µM,MAP3K4; [2],0%
same,inhibition at 10 µM,MAP3K4; read-out: inhibition (10 μM),9.5%
same,% inhibition,[1],0.0%
same,inhibition (10 μM),[1],26.8%
same,inhibition at 10 µM,PEK; [2],0%
same,inhibition at 10 µM,PEK; read-out: inhibition (10 μM),7.9%
same,inhibition at 10 µM,NEK4; [2],0%
same,inhibition at 10 µM,NEK4; read-out: inhibition (10 μM),25.1%
same,inhibition at 10 µM,NuaK2; [2],35 to 40%
same,inhibition at 10 µM,NuaK2; read-out: inhibition (10 μM),40.8%
same,inhibition at 10 µM,CHK2; [2],0%
same,inhibition at 10 µM,CHK2; read-out: inhibition (10 μM),19.3%
same,inhibition at 10 µM,MASTL; [2],0%
same,inhibition at 10 µM,MASTL; read-out: inhibition (10 μM),-1.4%
same,inhibition at 10 µM,MAP2K6; [2],0%
same,inhibition at 10 µM,MAP2K6; read-out: inhibition (10 μM),10.9%
same,inhibition at 10 µM,BRAF; [2],0%
same,inhibition at 10 µM,BRAF; read-out: inhibition (10 μM),-35.8%
same,inhibition at 10 µM,TBK1; [2],0%
same,inhibition at 10 µM,TBK1; read-out: inhibition (10 μM),31.4%
same,inhibition at 10 µM,NEK3; [2],0%
same,inhibition at 10 µM,NEK3; read-out: inhibition (10 μM),-9.9%
"Nc1ncc(-c2ccc(NS(=O)(=O)C3CC3)cc2F)cc1-c1ccc2c(c1)CCNC2=O [Compound I-51, N-(4-(6-amino-5-(1-oxo-1,2,3,4-tetrahydroisoquinolin-6-yl)pyridin-3-yl)-3-fluorophenyl) cyclopropanesulfonamide]",inhibition at 10 µM,CK1g3; [2],75 to 90%
same,inhibition at 10 µM,CK1g3; read-out: inhibition (10 μM),88.2%
same,% inhibition,"AurA, AurB, AurC",50-75%
same,inhibition (10 μM),"AurA, AurB, AurC",53.2%
same,inhibition at 10 µM,MAST3; [2],0%
same,inhibition at 10 µM,MAST3; read-out: inhibition (10 μM),7%
same,inhibition at 10 µM,JAK1 domain1; [2],0%
same,inhibition at 10 µM,JAK1 domain1; read-out: inhibition (10 μM),-8.2%
same,inhibition at 10 µM,FER; [2],0%
same,inhibition at 10 µM,FER; read-out: inhibition (10 μM),13.4%
same,inhibition at 10 µM,SNRK; [2],0%
same,inhibition at 10 µM,SNRK; read-out: inhibition (10 μM),-26.2%
same,% inhibition,"MARK1, MARK2",0.0%
same,inhibition (10 μM),"MARK1, MARK2",9.3%
same,inhibition at 10 µM,HPK1; [2],75 to 90%
same,inhibition at 10 µM,HPK1; read-out: inhibition (10 μM),83.5%
same,inhibition at 10 µM,ATR; [2],0%
same,inhibition at 10 µM,ATR; read-out: inhibition (10 μM),15%
same,inhibition at 10 µM,MARK4; [2],0%
same,inhibition at 10 µM,MARK4; read-out: inhibition (10 μM),22.2%
same,inhibition at 10 µM,p70S6K; [2],0%
same,inhibition at 10 µM,p70S6K; read-out: inhibition (10 μM),-21.6%
same,inhibition at 10 µM,MARK3; [2],0%
same,inhibition at 10 µM,MARK3; read-out: inhibition (10 μM),4.8%
same,inhibition at 10 µM,NEK9; [2],0%
same,inhibition at 10 µM,NEK9; read-out: inhibition (10 μM),-20.8%
same,inhibition at 10 µM,AurB; [2],0%
same,inhibition at 10 µM,AurB; read-out: inhibition (10 μM),31.8%
same,inhibition at 10 µM,RSK2 domain1; [2],35 to 40%
same,inhibition at 10 µM,RSK2 domain1; read-out: inhibition (10 μM),49.9%
same,% inhibition,"MAP3K2, MAP3K3",0.0%
same,inhibition (10 μM),"MAP3K2, MAP3K3",26.7%
same,inhibition (10 μM),NuaK1,68.8%
same,inhibition at 10 µM,NuaK1; [2],50 to 75%
same,inhibition at 10 µM,NuaK1; read-out: inhibition (10 μM),71.9%
same,inhibition at 10 µM,ZAK; [2],50 to 75%
same,inhibition at 10 µM,ZAK; read-out: inhibition (10 μM),58.3%
same,inhibition at 10 µM,MAP3K1; [2],> 90%
same,inhibition at 10 µM,MAP3K1; read-out: inhibition (10 μM),95.8%
same,inhibition at 10 µM,PKCi; [2],0%
same,inhibition at 10 µM,PKCi; read-out: inhibition (10 μM),-49.1%
same,inhibition at 10 µM,STLK5; [2],0%
same,inhibition at 10 µM,STLK5; read-out: inhibition (10 μM),-17.1%
same,inhibition at 10 µM,PIP4K2A; [2],0%
same,inhibition at 10 µM,PIP4K2A; read-out: inhibition (10 μM),-16.5%
same,inhibition at 10 µM,MAP3K4; [2],0%
same,inhibition at 10 µM,MAP3K4; read-out: inhibition (10 μM),24.2%
same,% inhibition,[1],0.0%
same,inhibition (10 μM),[1],19.2%
same,inhibition at 10 µM,PEK; [2],0%
same,inhibition at 10 µM,PEK; read-out: inhibition (10 μM),-16.3%
same,inhibition at 10 µM,NEK4; [2],0%
same,inhibition at 10 µM,NEK4; read-out: inhibition (10 μM),25.8%
same,inhibition at 10 µM,NuaK2; [2],35 to 40%
same,inhibition at 10 µM,NuaK2; read-out: inhibition (10 μM),45.1%
same,inhibition at 10 µM,CHK2; [2],0%
same,inhibition at 10 µM,CHK2; read-out: inhibition (10 μM),14.1%
same,inhibition at 10 µM,MASTL; [2],0%
same,inhibition at 10 µM,MASTL; read-out: inhibition (10 μM),14.6%
same,inhibition at 10 µM,MAP2K6; [2],0%
same,inhibition at 10 µM,MAP2K6; read-out: inhibition (10 μM),-3.5%
same,inhibition at 10 µM,BRAF; [2],0%
same,inhibition at 10 µM,BRAF; read-out: inhibition (10 μM),-41.8%
same,inhibition at 10 µM,TBK1; [2],35 to 40%
same,inhibition at 10 µM,TBK1; read-out: inhibition (10 μM),35.8%
same,inhibition at 10 µM,NEK3; [2],0%
same,inhibition at 10 µM,NEK3; read-out: inhibition (10 μM),-13%
